Source: PMC4883112 (Journal of medicinal chemistry, 2015)
In brackets after ≈: the same amount, converted by molar mass. Entries after “also recorded” stand apart in the source; their conditions may differ.

Legend:
[1] = Aqueous solubility, Shake-Flask method and HPLC; assay type: physicochemical; details: water with 2% DMSO
[2] = system: wild-type zebrafish (Danio rerio) embryos; experiment: Wild-type zebrafish embryo phenotype assay; details: for Lethality in zebrafish embryos: concentration range < 60μM, added 24 hpf, compared at 96 and 120 hpf
GSK-3β = GSK-3β (Sus scrofa, UniProt B2LUN4); experiment: Commercial in vitro GSK-3β inhibition assay at single concentration; assay type: biochemical, porcine; details: duplicates; for inhibition at 1 µM: read-out: GSK-3β Inhibition [%], 1 μM of compound
Sequence of GSK-3β (B2LUN4 1-420): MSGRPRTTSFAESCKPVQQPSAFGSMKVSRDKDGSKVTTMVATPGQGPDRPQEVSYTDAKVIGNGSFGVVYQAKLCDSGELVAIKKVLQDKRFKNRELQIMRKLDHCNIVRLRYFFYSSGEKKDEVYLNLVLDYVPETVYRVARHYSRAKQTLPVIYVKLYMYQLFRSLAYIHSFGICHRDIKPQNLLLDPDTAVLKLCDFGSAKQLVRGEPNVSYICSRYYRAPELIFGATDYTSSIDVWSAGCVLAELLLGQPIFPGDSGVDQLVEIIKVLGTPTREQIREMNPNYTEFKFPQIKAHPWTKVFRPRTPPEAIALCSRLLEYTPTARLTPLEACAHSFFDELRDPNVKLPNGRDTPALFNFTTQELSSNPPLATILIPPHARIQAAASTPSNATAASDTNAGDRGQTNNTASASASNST

GSK-3α = GSK-3α (Sus scrofa, UniProt I6LNT8); experiment: Commercial in vitro GSK-3α inhibition assay at single concentration; assay type: biochemical, porcine; details: read-out: GSK-3α Inhibition [%]
Sequence of GSK-3α (I6LNT8 1-483): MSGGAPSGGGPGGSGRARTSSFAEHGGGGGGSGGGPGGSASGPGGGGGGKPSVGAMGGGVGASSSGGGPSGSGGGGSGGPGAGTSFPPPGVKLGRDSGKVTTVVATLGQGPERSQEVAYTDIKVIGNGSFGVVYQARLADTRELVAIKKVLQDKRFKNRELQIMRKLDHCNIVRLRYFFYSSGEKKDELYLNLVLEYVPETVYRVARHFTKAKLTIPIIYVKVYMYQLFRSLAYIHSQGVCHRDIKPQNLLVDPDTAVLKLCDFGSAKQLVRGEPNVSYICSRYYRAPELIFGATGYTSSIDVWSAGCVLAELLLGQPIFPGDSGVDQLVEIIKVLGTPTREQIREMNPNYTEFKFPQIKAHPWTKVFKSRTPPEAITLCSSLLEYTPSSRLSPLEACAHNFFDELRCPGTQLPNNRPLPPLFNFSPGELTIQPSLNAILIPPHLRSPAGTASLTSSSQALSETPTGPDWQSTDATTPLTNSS

GSK-3β (h) = GSK-3β (h) (Homo sapiens, UniProt P49841); experiment: IC50 determination GSK-3β; assay type: biochemical
Sequence of GSK-3β (h) (P49841 whole entry): as the sequence (B2LUN4 1-420) above, with M40V, A59T, S392T, T400A, A402T, T411A counted along it

[3] = system: Tyr279 GSK-3α phosphorylation; experiment: GSK-3α Tyr279 phosphorylation in AML cells; assay type: cell-based; details: 24h treatment, increasing concentrations, NB4
[4] = system: Tyr216 GSK-3β phosphorylation; experiment: GSK-3β Tyr216 phosphorylation in AML cells; assay type: cell-based; details: up to 20 μM; 24h treatment, NB4
[5] = system: AML cell lines (HL-60 and NB4); experiment: AML differentiation; assay type: cell-based; details: 6 days of treatment
NB4 and HL-60 cell lines = experiment: Methylcellulose colony formation; assay type: cell-based; details: concentration-dependent

N#Cc1ccc(-c2ccc(CSc3nnc(-c4ccc5c(c4)OCCO5)o3)cc2)nc1 [Compound 13d, 6-(4-((5-(2,3-Dihydrobenzo[b][1,4]dioxin-6-yl)-1,3,4-oxadiazol-2-ylthio)methyl)phenyl)-nicotinonitrile]
solubility [1]: 78 µg/mL (≈ 182 µM)
Lethality in zebrafish embryos [2]: no lethality
Effects on zebrafish embryo phenotype ([2]; in vivo): no effects

N#Cc1cc(F)ccc1-c1ccc(CSc2nnc(-c3ccc4c(c3)OCCO4)o2)cc1 [Compound 1, 4′-(((5-(2,3-Dihydrobenzo[b][1,4]dioxin-6-yl)-1,3,4-oxadiazol-2-yl)thio)methyl)-4-fluoro-[1,1′-biphenyl]-2-carbonitrile]
solubility [1]: < 1 µg/mL

N#Cc1cc(F)ccc1-c1ccc(CSc2nnc(-c3ccc4nc[nH]c4c3)o2)cc1 [Compound 12a, 4′-(((5-(1H-Benzo[d]imidazol-6-yl)-1,3,4-oxadiazol-2-yl)thio)methyl)-4-fluoro-[1,1′-biphenyl]-2-carbonitrile]
inhibition at 1 µM (GSK-3β): 0%

Fc1ccc(-c2ccc(CSc3nnc(-c4ccc5c(c4)OCCO5)o3)cc2)cn1 [Compound 13f, 2-(2,3-Dihydrobenzo[b][1,4]dioxin-6-yl)-5-((4-(6-fluoropyridin-3-yl)benzyl)thio)-1,3,4-oxadiazole]
solubility [1]: 7 µg/mL (≈ 16.6 µM)

NC(=O)c1cc(F)ccc1-c1ccc(CSc2nnc(-c3ccc4c(c3)OCCO4)o2)cc1 [Compound 27, 4′-((5-(2,3-Dihydrobenzo[b][1,4]dioxin-6-yl)-1,3,4-oxadiazol-2-yl-thio)-methyl)-4-fluorbiphenyl-2-carboxamide]
inhibition at 1 µM (GSK-3α): 100%
inhibition at 1 µM (GSK-3β): 100%
IC50 (GSK-3β (h)): 14 nM
solubility [1]: 34 µg/mL (≈ 73.4 µM)
Tyr279 GSK-3α phosphorylation [3]: concentration-dependent decrease
Tyr216 GSK-3β phosphorylation [4]: without any relevant effect
Morphological and surface marker changes [5]: consistent with AML differentiation
Methylcellulose colony formation (NB4 and HL-60 cell lines): colony formation impairment
Lethality in zebrafish embryos [2]: no lethality; also recorded: without lethality
Zebrafish embryo phenotype at higher concentrations ([2]; in vivo): all zebrafish embryos showed a stunted and crooked tailed phenotype
Zebrafish embryo phenotype at lower concentrations ([2]; in vivo): no abnormalities were observed

Fc1ccc(-c2ccc(CSc3nnc(-c4ccc5c(c4)OCCO5)o3)cn2)cn1 [Compound 18c, 2-(2,3-Dihydrobenzo[b][1,4]dioxin-6-yl)-5-(((6′-fluoro-[2,3′-bipyridin]-5-yl)methyl)thio)-1,3,4-oxadiazole]
solubility [1]: < 1 µg/mL

Cc1ccc(-c2ccc(CSc3nnc(-c4ccc5c(c4)OCCO5)o3)cc2)nc1 [Compound 13e, 2-(2,3-Dihydrobenzo[b][1,4]dioxin-6-yl)-5-(4-(5-methylpyridin-2-yl)benzylthio)-1,3,4-oxadiazole]
solubility [1]: < 1 µg/mL

N#Cc1cc(F)ccc1-c1ccc(CS(=O)(=O)c2nnc(-c3ccc4c(c3)OCCO4)o2)cc1 [Compound 26, 4′-((5-(2,3-Dihydrobenzo[b][1,4]dioxin-6-yl)-1,3,4-oxadiazol-2-yl-sulfonyl)methyl)-4-fluorbiphenyl-2-carbonitrile]
inhibition at 0.1 µM (GSK-3α): 0%
inhibition at 0.1 µM (GSK-3β; read-out: GSK-3β Inhibition [%], 100 nM of compound): 0%
